Measurements reported in ChEMBL document CHEMBL1134903, “Synthesis and SAR of azalide 3,6-ketal aromatic derivatives as potent Gram-positive and Gram-negative antibacterial agents” (Bioorg Med Chem Lett, 2002).
Converted amounts (≈) assume the structure as drawn.

Legend:
Type in all cases: functional
Pasteurella multocida = assay: Minimum inhibitory concentration against Pasteurella multocida
Staphylococcus aureus [1] = assay: Minimum inhibitory concentration against Staphylococcus aureus
Staphylococcus aureus [2] = assay: Effective dose required to inhibit Staphylococcus aureus intraperitoneal (IP) infection model
Escherichia coli = assay: Minimum inhibitory concentration against Escherichia coli
Staphylococcus aureus [3] = assay: Colony forming units of Staphylococcus aureus intramammary infection (IMI) model was determined at a dose of 15 mg/kg

| Compound | MIC (Pasteurella multocida) [µg/mL] | MIC (Staphylococcus aureus [1]) [µg/mL] | ED50 (Staphylococcus aureus [2]) [mg/kg] | MIC (Escherichia coli) [µg/mL] | Log CFU (Staphylococcus aureus [3]) | MIC (Staphylococcus aureus [2]) [µg/mL] |
| --- | --- | --- | --- | --- | --- | --- |
| CC[C@H]1OC(=O)[C@H](C)[C@H]2OC3(CCN(C(=O)c4cncc(Cl)c4Cl)CC3)O[C@](C)(C[C@@H](C)CN[C@H](C)[C@@H](O)[C@]1(C)O)[C@H](O[C@@H]1O[C@H](C)C[C@H](N(C)C)[C@H]1O)[C@H]2C | 0.1 (≈ 0.12 µM) | 3.13 (≈ 3.76 µM) | > 20 | 3.13 (≈ 3.76 µM) | – | – |
| CC[C@H]1OC(=O)[C@H](C)[C@H]2OC3(CCN(C(=O)c4ccnc5ccccc45)CC3)O[C@](C)(C[C@@H](C)CN[C@H](C)[C@@H](O)[C@]1(C)O)[C@H](O[C@@H]1O[C@H](C)C[C@H](N(C)C)[C@H]1O)[C@H]2C | 0.1 (≈ 0.123 µM) | 0.39 (≈ 0.48 µM) | 7.6 | 6.25 (≈ 7.69 µM) | 1.9 | – |
| CC[C@H]1OC(=O)[C@H](C)[C@H]2OC3(CCN(CCc4ccccc4OC)CC3)O[C@](C)(C[C@@H](C)CN[C@H](C)[C@@H](O)[C@]1(C)O)[C@H](O[C@@H]1O[C@H](C)C[C@H](N(C)C)[C@H]1O)[C@H]2C | 0.03 (≈ 0.0379 µM) | 0.39 (≈ 0.492 µM) | – | 0.1 (≈ 0.126 µM) | – | – |
| CC[C@H]1OC(=O)[C@H](C)[C@H]2OC3(CCN(CCc4ccc(C#N)cc4)CC3)O[C@](C)(C[C@@H](C)CN(C)[C@H](C)[C@@H](O)[C@]1(C)O)[C@H](O[C@@H]1O[C@H](C)C[C@H](N(C)C)[C@H]1O)[C@H]2C | 0.03 (≈ 0.0374 µM) | 0.78 (≈ 0.974 µM) | 22 | 0.39 (≈ 0.487 µM) | – | – |
| CC[C@H]1OC(=O)[C@H](C)[C@H]2OC3(CCN(CCc4cccc(OC)c4)CC3)O[C@](C)(C[C@@H](C)CN(C)[C@H](C)[C@@H](O)[C@]1(C)O)[C@H](O[C@@H]1O[C@H](C)C[C@H](N(C)C)[C@H]1O)[C@H]2C | 0.03 (≈ 0.0372 µM) | 0.6 (≈ 0.744 µM) | > 20 | 0.2 (≈ 0.248 µM) | – | – |
| CC[C@H]1OC(=O)[C@H](C)[C@H]2OC3(CCN(CCc4ccnc5ccccc45)CC3)O[C@](C)(C[C@@H](C)CN(C)[C@H](C)[C@@H](O)[C@]1(C)O)[C@H](O[C@@H]1O[C@H](C)C[C@H](N(C)C)[C@H]1O)[C@H]2C | 0.05 (≈ 0.0605 µM) | 0.39 (≈ 0.472 µM) | > 20 | 1.56 (≈ 1.89 µM) | – | – |
| CC[C@H]1OC(=O)[C@H](C)[C@H]2OC3(CCN(C(=O)c4occc4C)CC3)O[C@](C)(C[C@@H](C)CN[C@H](C)[C@@H](O)[C@]1(C)O)[C@H](O[C@@H]1O[C@H](C)C[C@H](N(C)C)[C@H]1O)[C@H]2C | 0.1 (≈ 0.131 µM) | 0.78 (≈ 1.02 µM) | > 20 | 1.56 (≈ 2.04 µM) | – | – |
| CC[C@H]1OC(=O)[C@H](C)[C@H]2OC3(CCN(C(=O)c4cc5ccccc5[nH]4)CC3)O[C@](C)(C[C@@H](C)CN[C@H](C)[C@@H](O)[C@]1(C)O)[C@H](O[C@@H]1O[C@H](C)C[C@H](N(C)C)[C@H]1O)[C@H]2C | 0.1 (≈ 0.125 µM) | 0.78 (≈ 0.974 µM) | > 20 | 3.13 (≈ 3.91 µM) | – | – |
| CC[C@H]1OC(=O)[C@H](C)[C@H]2OC3(CCN(CCc4ccnc5ccccc45)CC3)O[C@](C)(C[C@@H](C)CN[C@H](C)[C@@H](O)[C@]1(C)O)[C@H](O[C@@H]1O[C@H](C)C[C@H](N(C)C)[C@H]1O)[C@H]2C | 0.05 (≈ 0.0615 µM) | 0.2 (≈ 0.246 µM) | > 20 | 1.56 (≈ 1.92 µM) | – | – |
| CC[C@H]1OC(=O)[C@H](C)[C@H]2OC3(CCN(C(=O)c4ccco4)CC3)O[C@](C)(C[C@@H](C)CN(C)[C@H](C)[C@@H](O)[C@]1(C)O)[C@H](O[C@@H]1O[C@H](C)C[C@H](N(C)C)[C@H]1O)[C@H]2C | 0.05 (≈ 0.0653 µM) | – | > 20 | 0.78 (≈ 1.02 µM) | 3.3 | – |
| CC[C@H]1OC(=O)[C@H](C)[C@H]2OC3(CCN(CCc4ccc(OC)cc4)CC3)O[C@](C)(C[C@@H](C)CN[C@H](C)[C@@H](O)[C@]1(C)O)[C@H](O[C@@H]1O[C@H](C)C[C@H](N(C)C)[C@H]1O)[C@H]2C | 0.01 (≈ 0.0126 µM) | 0.2 (≈ 0.253 µM) | – | 0.2 (≈ 0.253 µM) | – | – |
| CC[C@H]1OC(=O)[C@H](C)[C@H]2OC3(CCN(CCc4ccccc4)CC3)O[C@](C)(C[C@@H](C)CN(C)[C@H](C)[C@@H](O)[C@]1(C)O)[C@H](O[C@@H]1O[C@H](C)C[C@H](N(C)C)[C@H]1O)[C@H]2C | 0.02 (≈ 0.0258 µM) | – | > 20 | 0.075 (≈ 0.0966 µM) | 7.3 | – |
| CC[C@H]1OC(=O)[C@H](C)[C@H]2OC3(CCN(Cc4ccncc4)CC3)O[C@](C)(C[C@@H](C)CN[C@H](C)[C@@H](O)[C@]1(C)O)[C@H](O[C@@H]1O[C@H](C)C[C@H](N(C)C)[C@H]1O)[C@H]2C | 0.03 (≈ 0.0401 µM) | 1.56 (≈ 2.08 µM) | 6.4 | 0.78 (≈ 1.04 µM) | – | – |
| CC[C@H]1OC(=O)[C@H](C)[C@H]2OC3(CCN(CCc4ccc(NC(C)=O)cc4)CC3)O[C@](C)(C[C@@H](C)CN(C)[C@H](C)[C@@H](O)[C@]1(C)O)[C@H](O[C@@H]1O[C@H](C)C[C@H](N(C)C)[C@H]1O)[C@H]2C | 0.05 (≈ 0.06 µM) | – | 9.6 | 0.39 (≈ 0.468 µM) | 9.7 | – |
| CC[C@H]1OC(=O)[C@H](C)[C@H]2OC3(CCN(CCc4ccccc4)CC3)O[C@](C)(C[C@@H](C)CN[C@H](C)[C@@H](O)[C@]1(C)O)[C@H](O[C@@H]1O[C@H](C)C[C@H](N(C)C)[C@H]1O)[C@H]2C | 0.03 (≈ 0.0394 µM) | 0.39 (≈ 0.512 µM) | > 20 | 0.1 (≈ 0.131 µM) | – | – |
| CC[C@H]1OC(=O)[C@H](C)[C@H]2OC3(CCN(CCc4ccoc4)CC3)O[C@](C)(C[C@@H](C)CN(C)[C@H](C)[C@@H](O)[C@]1(C)O)[C@H](O[C@@H]1O[C@H](C)C[C@H](N(C)C)[C@H]1O)[C@H]2C | 0.03 (≈ 0.0392 µM) | – | – | 0.2 (≈ 0.261 µM) | – | – |
| CC[C@H]1OC(=O)[C@H](C)[C@H]2OC3(CCN(CCc4ccc(Cl)c(Cl)c4)CC3)O[C@](C)(C[C@@H](C)CN(C)[C@H](C)[C@@H](O)[C@]1(C)O)[C@H](O[C@@H]1O[C@H](C)C[C@H](N(C)C)[C@H]1O)[C@H]2C | 0.05 (≈ 0.0592 µM) | 0.2 (≈ 0.237 µM) | – | 50 (≈ 59.2 µM) | – | – |
| CC[C@H]1OC(=O)[C@H](C)[C@H]2OC3(CCN(C(=O)c4cccs4)CC3)O[C@](C)(C[C@@H](C)CN(C)[C@H](C)[C@@H](O)[C@]1(C)O)[C@H](O[C@@H]1O[C@H](C)C[C@H](N(C)C)[C@H]1O)[C@H]2C | 0.05 (≈ 0.0639 µM) | – | – | 1.56 (≈ 1.99 µM) | – | > 20 |
| CC[C@H]1OC(=O)[C@H](C)[C@H]2OC3(CCN(C(=O)c4cnc5ccccc5c4)CC3)O[C@](C)(C[C@@H](C)CN(C)[C@H](C)[C@@H](O)[C@]1(C)O)[C@H](O[C@@H]1O[C@H](C)C[C@H](N(C)C)[C@H]1O)[C@H]2C | 0.1 (≈ 0.121 µM) | 0.39 (≈ 0.472 µM) | > 20 | 6.25 (≈ 7.56 µM) | – | – |
| CC[C@H]1OC(=O)[C@H](C)[C@H]2OC3(CCN(CCc4ccc(Cl)cc4)CC3)O[C@](C)(C[C@@H](C)CN[C@H](C)[C@@H](O)[C@]1(C)O)[C@H](O[C@@H]1O[C@H](C)C[C@H](N(C)C)[C@H]1O)[C@H]2C | 0.01 (≈ 0.0126 µM) | – | – | 0.2 (≈ 0.251 µM) | – | – |
| CC[C@H]1OC(=O)[C@H](C)[C@H]2OC3(CCN(CCc4cccc(OC)c4)CC3)O[C@](C)(C[C@@H](C)CN[C@H](C)[C@@H](O)[C@]1(C)O)[C@H](O[C@@H]1O[C@H](C)C[C@H](N(C)C)[C@H]1O)[C@H]2C | 0.03 (≈ 0.0379 µM) | 0.39 (≈ 0.492 µM) | – | 0.3 (≈ 0.379 µM) | – | – |
| CC[C@H]1OC(=O)[C@H](C)[C@H]2OC3(CCN(Cc4ccc(-c5ccccc5)cc4)CC3)O[C@](C)(C[C@@H](C)CN(C)[C@H](C)[C@@H](O)[C@]1(C)O)[C@H](O[C@@H]1O[C@H](C)C[C@H](N(C)C)[C@H]1O)[C@H]2C | 0.1 (≈ 0.119 µM) | 0.2 (≈ 0.239 µM) | > 20 | 1.56 (≈ 1.86 µM) | – | – |
| CC[C@H]1OC(=O)[C@H](C)[C@H]2OC3(CCN(CCc4ccccc4OC)CC3)O[C@](C)(C[C@@H](C)CN(C)[C@H](C)[C@@H](O)[C@]1(C)O)[C@H](O[C@@H]1O[C@H](C)C[C@H](N(C)C)[C@H]1O)[C@H]2C | 0.03 (≈ 0.0372 µM) | 0.39 (≈ 0.484 µM) | > 20 | 0.1 (≈ 0.124 µM) | – | – |
| CC[C@H]1OC(=O)[C@H](C)[C@H]2OC3(CCN(Cc4cccnc4)CC3)O[C@](C)(C[C@@H](C)CN(C)[C@H](C)[C@@H](O)[C@]1(C)O)[C@H](O[C@@H]1O[C@H](C)C[C@H](N(C)C)[C@H]1O)[C@H]2C | 0.03 (≈ 0.0393 µM) | 0.78 (≈ 1.02 µM) | > 20 | 0.39 (≈ 0.511 µM) | – | – |
| CC[C@H]1OC(=O)[C@H](C)[C@H]2OC3(CCNCC3)O[C@](C)(C[C@@H](C)CN(C)[C@H](C)[C@@H](O)[C@]1(C)O)[C@H](O[C@@H]1O[C@H](C)C[C@H](N(C)C)[C@H]1O)[C@H]2C | 0.05 (≈ 0.0744 µM) | 6.25 (≈ 9.3 µM) | – | 0.2 (≈ 0.298 µM) | – | – |
| CC[C@H]1OC(=O)[C@H](C)[C@H]2OC3(CCN(CCc4ccc(Cl)c(Cl)c4)CC3)O[C@](C)(C[C@@H](C)CN[C@H](C)[C@@H](O)[C@]1(C)O)[C@H](O[C@@H]1O[C@H](C)C[C@H](N(C)C)[C@H]1O)[C@H]2C | 0.05 (≈ 0.0602 µM) | 0.39 (≈ 0.469 µM) | – | 3.13 (≈ 3.77 µM) | – | – |
| CC[C@H]1OC(=O)[C@H](C)[C@H]2OC3(CCN(CCc4ccc5ccccc5n4)CC3)O[C@](C)(C[C@@H](C)CN(C)[C@H](C)[C@@H](O)[C@]1(C)O)[C@H](O[C@@H]1O[C@H](C)C[C@H](N(C)C)[C@H]1O)[C@H]2C | 0.03 (≈ 0.0363 µM) | 0.39 (≈ 0.472 µM) | > 20 | 0.78 (≈ 0.943 µM) | – | – |
| CC[C@H]1OC(=O)[C@H](C)[C@H]2OC3(CCN(C(=O)c4c[nH]c5ccccc45)CC3)O[C@](C)(C[C@@H](C)CN[C@H](C)[C@@H](O)[C@]1(C)O)[C@H](O[C@@H]1O[C@H](C)C[C@H](N(C)C)[C@H]1O)[C@H]2C | 0.1 (≈ 0.125 µM) | 0.39 (≈ 0.487 µM) | 11 | 6.25 (≈ 7.8 µM) | – | – |
| CC[C@H]1OC(=O)[C@H](C)[C@H]2OC3(CCN(C(=O)c4ccc(-c5ccccc5)cc4)CC3)O[C@](C)(C[C@@H](C)CN[C@H](C)[C@@H](O)[C@]1(C)O)[C@H](O[C@@H]1O[C@H](C)C[C@H](N(C)C)[C@H]1O)[C@H]2C | 0.2 (≈ 0.239 µM) | 0.78 (≈ 0.931 µM) | – | 6.25 (≈ 7.46 µM) | – | – |
| CC[C@H]1OC(=O)[C@H](C)[C@H]2OC3(CCN(C(=O)c4ccccc4)CC3)O[C@](C)(C[C@@H](C)CN(C)[C@H](C)[C@@H](O)[C@]1(C)O)[C@H](O[C@@H]1O[C@H](C)C[C@H](N(C)C)[C@H]1O)[C@H]2C | 0.1 (≈ 0.129 µM) | – | – | 3.13 (≈ 4.03 µM) | – | – |
